The values below come from PubChem BioAssay (NCI).

Where “and” joins values, the source holds several entries; their conditions need not be identical. Equal entries are not always repeated.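 96-well plates; 48 h exposure; 5 concentrations. Endpoints by linear interpolation between flanking doses. Not reached: highest tested concentration assigned. Abbreviation: GI50, concentration required for 50% inhibition of growth. Definition used: TGI = concentration required for complete inhibition of growth.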 Where only a bound is given, the exact number is not on record here.

This assay has as its system MDA-MB-468 breast. As to the kind of experiment: NCI anticancer screen, dose series, 48 h.
Turning to `Cc1c(-c2c(F)cc(C(N)=O)c3[nH]c4c(c23)CC[C@H](C(C)(C)O)C4)cccc1-n1c(=O)c2cccc(F)c2n(C)c1=O`, the GI50 was 3060 nM and the TGI was more than 100000 nM.
For `CCN1C(=O)N(CC)C2C1NN=c1s/c(=C\c3ccc(Br)cc3)c(=O)n12` (configuration not stated), the GI50 is 69.7 nM and the TGI was 516 nM.
Taken in the same sequence, the figures for `O=[N+]([O-])c1ccc(NC(c2ccccc2)c2ccc3cccnc3c2O)cc1` (configuration not stated) were 363 nM and 2050 nM.
Taken in the same sequence, the figures for `O=C(COc1ccc(Cl)cc1Cl)NNc1ccc([N+](=O)[O-])cc1` were 37500 nM and more than 100000 nM.
Taken in the same sequence, the figures for `C#Cc1cccc(NC(=O)C2CCCCN2C(=O)CCl)c1` (configuration not stated) were 11200 nM and 34100 nM.
As for `CN1CCN(CCCn2c3c(sc4ncccc43)c(=O)n3nnc(-c4ccccc4)c23)CC1`, the GI50 is 1720 nM and the TGI amounted to 3250 nM.
Taken in the same sequence, the figures for `O=c1[nH]c(=O)n(C2C[C@@H](O)[C@@H](CO)O2)cc1F` (some centres not stated) were 44.4 nM and 36300 nM.
For `Cn1cc(-c2[nH]c3cc(NC(=O)[C@H](N)C4CCCCC4)cc4c3c2C=NNC4=O)cn1`, the GI50 was 164 nM and 503 nM; the TGI is 827 nM and > 5300 nM.
On to `O=C(Nc1c(Cl)cccc1Cl)Oc1cccc2cccnc12`, for which the GI50 was 2910 nM and the TGI is 13900 nM.
Regarding `COc1cc(N2CCN(C(C)C)CC2)ccc1Nc1nc(Nc2ccc(F)cc2C(N)=O)c2cc[nH]c2n1`, the GI50 is 999 nM and the TGI worked out at 5490 nM.
Taken in the same sequence, the figures for `COc1ccc(COc2ccc(Cc3cnc(N)nc3N)cc2OC)cc1` were 3270 nM and 19600 nM.
On to `O=C(Nc1ccc([N+](=O)[O-])cc1Cl)c1cc(Cl)ccc1O`, for which the GI50 is 121 nM and 260 nM; the TGI is 388 nM and 782 nM.
Take `CC1(/C=C/c2ccc(-c3ccccc3)cc2)CCn2cnc3ncnc(c32)N1O` (configuration not stated): the GI50 was 276 nM and the TGI was 872 nM.
As to `Cc1cc(C(=O)NOCCO)c(Nc2ccc(I)cc2F)n(C)c1=O`, the GI50 is > 10000 nM and 68200 nM; the TGI is more than 100000 nM.
In the case of `Cc1cccc(Nc2ncc(-c3ccccc3)o2)c1`, the GI50 is 7050 nM and the TGI was more than 25000 nM.
The matching figures for `CC(=O)OCc1cc[c]([Hg][Cl])o1`: 1500 nM and 3440 nM.
Taken in the same sequence, the figures for `COc1cc(/C=C/[N+](=O)[O-])cc(OC)c1` were 1640 nM and 3530 nM.
The matching figures for `COC1C[C@H](O[C@@H]2C[C@H](O[C@@H]3C[C@H](O[C@@H]4C(=O)c5c(cc6cc(O[C@H]7C[C@@H](O[C@H]8C[C@@H](O)[C@H](O)C(C)O8)[C@H](O)C(C)O7)c(C)c(O)c6c5O)C[C@H]4C(OC)C(=O)[C@@H](O)[C@@H](C)O)OC(C)[C@H]3O)OC(C)[C@@H]2O)OC(C)[C@@H]1O` (some centres not stated): 109 nM and 723 nM.
For `Cc1ccccc1N=C(c1ccccc1)C1C(=O)c2ccccc2C1=O`, the GI50 is 6220 nM and the TGI is more than 100000 nM.
The matching figures for `Cn1cc(-c2nc(-c3c[nH]c4ccccc34)cs2)c2cccnc21`: 252 nM and 827 nM.
On to `COc1cccc(/C=C/C(=O)c2cc3c(N)c(C(=O)Nc4ccccc4)sc3nc2C)c1`, for which the GI50 was 906 nM and the TGI amounted to 1840 nM.
With `c1ccc(OCC[P+](c2ccccc2)(c2ccccc2)c2ccccc2)cc1`, the GI50 was 152 nM and the TGI was 736 nM.
Taken in the same sequence, the figures for `CCCCCCCN(CCCCCCC)C(=N)c1ccc(OC)c2ccccc12` were 1230 nM and 2810 nM.
The matching figures for `c1ccc2c(c1)CCCc1nnc3nc4ccccc4n3c1-2`: 6550 nM and 74700 nM.
In the case of `CNC(=O)c1cc(Oc2ccc(NC(=O)Nc3ccc(Cl)c(C(F)(F)F)c3)cc2)ccn1`, the GI50 was 1420 nM and 2030 nM and 2090 nM; the TGI was 7910 nM and 8050 nM and 7700 nM.
Regarding `Nc1nc(N)c2c(n1)NC(c1ccc(Cl)cc1)C1CCc3ccccc3C1=N2` (configuration not stated), the GI50 was 1600 nM and the TGI was found to be 14500 nM.
Turning to `COc1ccc(C2CC(=O)Nc3c2c(C)nn3-c2nc3ccccc3[nH]2)cc1OC` (configuration not stated), the GI50 is 3090 nM and the TGI stood at 16800 nM.
On to `O=C(Nc1n[nH]c2cc(-c3ccc(F)cc3)ccc12)C1CC1`, for which the GI50 is 3420 nM and the TGI was more than 16200 nM.
Taken in the same sequence, the figures for `O=C1NC(=O)/C(=C/c2ccc3nccc(-c4ccncc4)c3c2)S1` were 185 nM and 1170 nM.
The matching figures for `COc1cc2cc(C(=O)Nc3ccccc3)c(N)nc2cc1OC`: 21900 nM and more than 100000 nM.
Taken in the same sequence, the figures for `Clc1ccc(Nc2nnc(COc3ccccc3)c3ccccc23)cc1` were 1490 nM and 7620 nM.
With `O=C(/C=C/c1cc2ccccc2[nH]c1=O)c1ccc(O)cc1`, the GI50 was 2120 nM and the TGI came to 5300 nM.
Taken in the same sequence, the figures for `COc1ccc(CNCCN2C(=O)c3ccc4c5c(ccc(c35)C2=O)C(=O)N(CCNCc2ccc(OC)c(OC)c2OC)C4=O)c(OC)c1OC` were 82.2 nM and 164 nM.
Taken in the same sequence, the figures for `CS(=O)(=O)Nc1cc(-c2ccc3ncnc(Nc4ccc(OCc5ccccn5)c(Cl)c4)c3c2)cnc1Cl` were 156 nM and 780 nM.
Taken in the same sequence, the figures for `Fc1ccc(Nc2ccnc(N3CCN(c4ccnc5cc(Cl)ccc45)CC3)n2)cc1` were 2410 nM and 19300 nM.
Take `COc1ccc(N2CCN(c3nc(-c4ccccn4)nc4sc5c(c34)CCCCCC5)CC2)cc1`: the GI50 was 4110 nM and the TGI was more than 100000 nM.
Taken in the same sequence, the figures for `C=C1C(=O)O[C@H]2[C@H]1CC/C(COC(=O)NCCc1ccc(Br)cc1)=C\CC[C@@]1(C)O[C@@H]21` were 841 nM and 2470 nM.
The matching figures for `COc1cc2cc(Oc3ccc(NC(=O)c4cccc(C(F)(F)F)c4)cc3)c(C)nc2cc1OCCN1CCCCC1`: 14100 nM and 29100 nM.
The matching figures for `C[C@H]1O[C@@H](O[C@H]2[C@@H](O)C[C@H](O[C@H]3[C@@H](O)C[C@H](O[C@H]4CC[C@]5(C)C6CC[C@]7(C)[C@@H](C8=CC(=O)OC8)CC[C@]7(O)C6CC[C@@H]5C4)O[C@@H]3C)O[C@@H]2C)C[C@H](O)[C@@H]1O` (some centres not stated): 66.7 nM and 202 nM.
`O=C(Nc1cccc(Cl)c1)Nc1cc(C(F)(F)F)ccc1Cl`: the GI50 was 1990 nM and the TGI came out at 4730 nM.
The matching figures for `Nc1cc2c3ccccc3ccc2c2ccccc12`: more than 100000 nM and more than 100000 nM.
